Test results as given in PubChem BioAssay (NCI).
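Each compound was tested at five concentrations against cells in 96-well plates for 48 hours. TGI denotes the concentration required for complete inhibition of growth.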

What was measured:
Assay in all cases: NCI-60 cell line screen, 48 h
ACHN renal = system: ACHN renal
CAKI-1 renal = system: CAKI-1 renal
COLO 205 colon = system: COLO 205 colon
DU-145 prostate = system: DU-145 prostate
HOP-62 NSCLC = system: HOP-62 NSCLC
M14 melanoma = system: M14 melanoma
MDA-MB-231 breast = system: MDA-MB-231 breast
MDA-N = system: MDA-N
NCI-H522 lung = system: NCI-H522 lung
OVCAR-3 ovarian = system: OVCAR-3 ovarian
OVCAR-4 ovarian = system: OVCAR-4 ovarian
OVCAR-5 ovarian = system: OVCAR-5 ovarian
OVCAR-8 ovarian = system: OVCAR-8 ovarian
PC-3 prostate = system: PC-3 prostate
RPMI-8226 leukemia = system: RPMI-8226 leukemia
SF-268 CNS = system: SF-268 CNS
SK-MEL-5 melanoma = system: SK-MEL-5 melanoma
SNB-19 CNS = system: SNB-19 CNS
U251 CNS = system: U251 CNS
UACC-62 melanoma = system: UACC-62 melanoma

SMILES | TGI (ACHN renal) [µM] | TGI (CAKI-1 renal) [µM] | TGI (COLO 205 colon) [µM] | TGI (DU-145 prostate) [µM] | TGI (HOP-62 NSCLC) [µM] | TGI (M14 melanoma) [µM] | TGI (MDA-MB-231 breast) [µM] | TGI (MDA-N) [µM] | TGI (NCI-H522 lung) [µM] | TGI (OVCAR-3 ovarian) [µM] | TGI (OVCAR-4 ovarian) [µM] | TGI (OVCAR-5 ovarian) [µM] | TGI (OVCAR-8 ovarian) [µM] | TGI (PC-3 prostate) [µM] | TGI (RPMI-8226 leukemia) [µM] | TGI (SF-268 CNS) [µM] | TGI (SK-MEL-5 melanoma) [µM] | TGI (SNB-19 CNS) [µM] | TGI (U251 CNS) [µM] | TGI (UACC-62 melanoma) [µM]
O=C(/C=C/c1csc(-c2ccccc2)n1)NCc1ccc(C(=O)NCCc2ccccc2)cc1 | > 100 | 50.3 | > 100 | > 100 | 6.86 | > 100 | 55.6 | > 100 | > 100 | > 100 | > 100 | > 100 | 63 | > 100 | > 100 | > 100 | > 100 | 49.1 | > 100 | > 100
N#CC12C(=O)N3C(=NC(c4ccccc4)NC3c3ccccc3)C1(C#N)C(c1ccccc1)NC1=C2CCC1 (stereo not given) | > 100 | > 100 | > 100 | > 100 | > 100 | > 100 | > 100 | > 100 | > 100 | > 100 | > 100 | > 100 | > 100 | > 100 | > 100 | > 100 | > 100 | > 100 | > 100 | > 100
CC(=O)NC(CS/N=N/c1nc[nH]c1C(N)=O)C(=O)O (stereo not given) | > 100 | > 41.2 | > 100 | > 100 | > 100 | > 100 | > 27.8 | > 100 | > 100 | > 100 | > 100 | > 100 | > 100 | > 100 | > 31.6 | > 100 | > 100 | > 100 | > 100 | > 100
CC12CCC(CC1=O)C2(C)CCC(N)=O (stereo not given) | > 100 | > 100 | > 100 | > 100 | > 100 | > 100 | > 100 | > 100 | > 100 | > 100 | > 100 | > 100 | > 100 | > 100 | > 100 | > 100 | > 100 | > 100 | > 100 | > 100
CCOC(=O)C1=[N+]([O-])OC2=C(O)CCCC21 (stereo not given) | > 100 | > 100 | > 100 | > 100 | > 100 | > 100 | > 100 | > 100 | > 100 | > 100 | > 100 | > 100 | > 100 | > 100 | > 100 | > 100 | > 100 | > 100 | > 100 | > 100
